Each structure is given as a SMILES string.

Experiment [1] in a line: Test [I]: blood pressure in pentobarbital-anesthetized dogs, i.v. Conditions: anesthetized adult dogs, 20 μg/kg i.v.; for inhibition in vivo at 0.02 mg/kg: Canis lupus familiaris, iv, read-out: Reduction in blood pressure. Also on record: key to duration of hypotensive action (mark (*): especially longlasting): +: a reduction of less than 20%; ++: a reduction of 20 to 50%; +++: a reduction of more than 50%; (*): The hypotensive action is especially longlasting. Type of experiment: in vivo. The procedure:
(§1) Adult dogs were anesthetized by intravenous administration of 30 mg/kg of pentobarbital, and examined under artificial respiration for the action of the compound of this invention on blood pressure and heart rate.
A catheter was inserted into the femoral artery, and connected to a pressure transducer for measurement of the blood pressure.
(§2) Dose and Method of Administration:
(§3) The test drug was dissolved in 0.1 N hydrochloric acid, and administered intravenously in a dose of 20 μg/kg.
(§4) The numbered compounds in the following tables correspond to the compounds obtained in the correspondingly numbered Examples given hereinbelow.

A short description of experiment [2]: Test [III]: left ventricular end diastolic pressure (LVEDP) in anesthetized dogs. Type of experiment: in vivo. The conditions noted are these: anesthetized mongrel dogs, 20 μg/kg i.v. As to the method:
(§5) Mongrel dogs were anesthetized by intravenous administration of 30 mg/kg of pentobarbital, and examined under artifical respiration for the following items.
(1) Left ventricular end diastolic pressure (LVEDP)
Measured by advancing a catheter transducer to the left ventricle.
as §2
(§6) Each of the compounds shown in Tables 2 to 4 was dissolved in 0.1 N hydrochloric acid, and intravenously administered in a dose of 20 μg/kg.

Experiment [3] is described as follows: Test [I]: heart rate in pentobarbital-anesthetized dogs, i.v. Type of experiment: in vivo. The conditions noted are these: Canis lupus familiaris, iv; anesthetized adult dogs, 20 μg/kg i.v.; read-out: Reduction in heart rate. As to the method: as §1
Measured by pulse pressure changes.
as §2, §3, §4

Experiment [4] is described as follows: Test [III]: coronary blood flow in anesthetized dogs. Type of experiment: in vivo. The conditions noted are these: anesthetized mongrel dogs, 20 μg/kg i.v. The procedure: as §5
Measured by setting an electro magnetic flow meter probe in the left circumflex branch.
as §2, §6

Experiment [5] in a line: Test [III]: common carotid blood flow in anesthetized dogs. The conditions noted are these: anesthetized mongrel dogs, 20 μg/kg i.v. Type of experiment: in vivo. As to the method: as §5
(3) Common carotid blood flow
Measured by setting an electromagnetic flow probe at the common carotid artery.
as §2, §6

For experiment [6], the system named is isolated atrial muscle of a guinea pig. The experiment can be described thus: Test [II]: antagonistic action against isoproterenol on isolated atrial muscle (β-blocking action). Conditions: 10^-9 to 4×10^-4 mole, control drug propranolol hydrochloride. The procedure: The isolated atrial muscle of a guinea pig was used, and its contractile force and heart rate were recorded. Thus, the antagonistic action of the test drug against isoproterenol was examined. The drug was used in a concentration of 10^-9 to 4×10^-4 mole. As a control drug, propranolol hydrochloride was used.

For `CC(C)NCC(O)COc1ccc(CCCCO[N+](=O)[O-])cc1` (stereo not shown) [Compound 62, 1-iso-Propylamino-3-[4-(4-nitratobutyl)phenoxy]-2-propanol], the values for the inhibition in vivo at 0.02 mg/kg in experiment [1] and in experiment [3] were over 50% and 20 to 50%, respectively. Besides, in experiment [2], the “Decrease rate (%) in LVEDP” value is “.dwnarw. (a decrease of less than 20%)”.
`CC(C)NCC(O)COc1ccc(OCCO[N+](=O)[O-])c(Cl)c1` (stereo not shown) [Compound 34, 1-iso-Propylamino-3-[3-chloro-4-(2-nitratoethoxy)phenoxy]-2-propanol]: the “Increase rate (%) in coronary flow” value in experiment [4] was “.uparw. (an increase of 30% or less)”. Besides, the “Increase rate (%) in flow in the common carotid artery” value (from here on “Increase rate (%) in flow”) in experiment [5] is “.uparw. (an increase of 30% or less)”.
`CC(C)NCC(O)COc1ccc(OCCO[N+](=O)[O-])cc1OCCO[N+](=O)[O-]` (stereo not shown) [Compound 50, 1-iso-Propylamino-3-[2,4-di-(2-nitratoethoxy)phenoxy]-2-propanol]: the inhibition in vivo at 0.02 mg/kg in experiment [1] and in experiment [3] was over 50% throughout. Moreover, the “Decrease rate (%) in LVEDP” value in experiment [2] is recorded as “.dwnarw..dwnarw. (a decrease of 20 to 40%)”.
On to `CC(C)NCC(O)COc1ccccc1OCCCO[N+](=O)[O-]` (stereo not shown) [Compound 8, 1-iso-Propylamino-3-[2-(3-nitratopropoxy)phenoxy]-2-propanol], for which the “antagonistic action against isoproterenol, compared with propranolol hydrochloride” value in experiment [6] was “same degree of action as the control drug”.
Consider `C=CCOc1cc(OCCO[N+](=O)[O-])ccc1OCC(O)CNC(C)C` (stereo not shown) [Compound 23, 1-iso-Propylamino-3-[2-allyloxy-4-(2-nitratoethoxy)phenoxy]-2-propanol], for which the inhibition in vivo at 0.02 mg/kg in experiment [1] was 20 to 50%; in experiment [3] it was over 50%. Also, in experiment [2], the “Decrease rate (%) in LVEDP” value is recorded as “.dwnarw..dwnarw. (a decrease of 20 to 40%)”.
As to `COc1ccc(OCCO[N+](=O)[O-])cc1OCC(O)CNC(C)C` (stereo not shown) [Compound 13, 1-iso-Propylamino-3-[2-methoxy-5-(2-nitratoethoxy)phenoxy]-2-propanol], the “antagonistic action against isoproterenol, compared with propranolol hydrochloride” value in experiment [6] is recorded as “same degree of action as the control drug”.
As to `CC(C)NCC(O)COc1ccc(OCCO[N+](=O)[O-])c(C(N)=O)c1` (stereo not shown) [Compound 55, 1-iso-Propylamino-3-[3-carbamoyl-4-(2-nitratoethoxy)phenoxy]-2-propanol], the inhibition in vivo at 0.02 mg/kg in experiment [1] is 20 to 50%; in experiment [3], over 50%.
With `C=CCOc1cc(OCCO[N+](=O)[O-])c(Cl)cc1OCC(O)CNC(C)C` (stereo not shown) [Compound 33, 1-iso-Propylamino-3-[2-allyloxy-5-chloro-4-(2-nitratoethoxy)phenoxy]-2-propanol], the “Increase rate (%) in coronary flow” value in experiment [4] is on record as “.uparw. (an increase of 30% or less)”. In addition, in experiment [1], the inhibition in vivo at 0.02 mg/kg was 20 to 50% and the “duration of hypotensive action (mark (*): especially longlasting)” value is listed as “(*)”. In experiment [2], the “Decrease rate (%) in LVEDP” value was “.dwnarw. (a decrease of less than 20%)”. For the same molecule, the “Increase rate (%) in flow” value in experiment [5] was “.uparw. (an increase of 30% or less)”. The inhibition in vivo at 0.02 mg/kg in experiment [3] was in the range of 20 to 50%.
`CC(C)NCC(O)COc1ccc(CCCO[N+](=O)[O-])cc1` (stereo not shown) [Compound 61, 1-iso-Propylamino-3-[4-(3-nitratopropyl)phenoxy]-2-propanol]: the inhibition in vivo at 0.02 mg/kg in experiment [1] and in experiment [3] was over 50% throughout. Further, the “Increase rate (%) in flow” value in experiment [5] is “.uparw. (an increase of 30% or less)”.
Consider `CC(C)NCC(O)COc1ccc(OCCCO[N+](=O)[O-])cc1` (stereo not shown) [Compound 7, 1-iso-Propylamino-3-[4-(3-nitratopropoxy)phenoxy]-2-propanol], for which the “Increase rate (%) in coronary flow” value in experiment [4] is reported as “.uparw..uparw. (an increase of more than 30%)”. Further, the inhibition in vivo at 0.02 mg/kg in experiment [1] is 20 to 50%; in experiment [3] it was over 50%. Also, in experiment [2], the “Decrease rate (%) in LVEDP” value is “.dwnarw..dwnarw..dwnarw. (a decrease of more than 40%)”. Besides, the “Increase rate (%) in flow” value in experiment [5] is “.uparw..uparw. (an increase of more than 30%)”.
Turning to `CC(C)NCC(O)COc1ccccc1OCCO[N+](=O)[O-]` (stereo not shown) [Compound 2, 1-iso-Propylamino-3-[2-(2-nitrotoethoxy)phenoxy]-2-propanol], the “Increase rate (%) in coronary flow” value in experiment [4] was “.uparw..uparw. (an increase of more than 30%)”. The inhibition in vivo at 0.02 mg/kg in experiment [1] and in experiment [3] was 20 to 50% each time.
Regarding `COc1cc(OCCO[N+](=O)[O-])ccc1OCC(O)CNC(C)C` (stereo not shown) [Compound 17, 1-iso-Propylamino-3-[2-methoxy-4-(2-nitratoethoxy)phenoxy]-2-propanol], the “antagonistic action against isoproterenol, compared with propranolol hydrochloride” value in experiment [6] is “same degree of action as the control drug”.
As for `CC(C)NCC(O)COc1cccc(OCCO[N+](=O)[O-])c1` (stereo not shown) [Compound 1, 1-iso-Propylamino-3-[3-(2-nitratoethoxy)phenoxy]-2-propanol], the “Decrease rate (%) in LVEDP” value in experiment [2] is listed as “.dwnarw..dwnarw..dwnarw. (a decrease of more than 40%)”.
On to `COc1ccc(C(O)CNC(C)CCc2ccccc2)cc1OCCO[N+](=O)[O-]` (stereo not shown) [Compound 4, 1-[4-methoxy-3-(2-nitratoethoxy)phenyl]-2-(1-methyl-3-phenylpropyl)aminoethanol], for which, in experiment [6], the “antagonistic action against isoproterenol, compared with propranolol hydrochloride” value was “same degree of action as the control drug”.
For `CC(C)NCC(O)COc1ccc(OCCO[N+](=O)[O-])cc1` (stereo not shown) [Compound 6, 1-iso-Propylamino-3-[4-(2-nitratoethoxy)phenoxy]-2-propanol], the “Increase rate (%) in coronary flow” value in experiment [4] was “.uparw..uparw. (an increase of more than 30%)”. For the same molecule, in experiment [1], the inhibition in vivo at 0.02 mg/kg was over 50% and the “duration of hypotensive action (mark (*): especially longlasting)” value is on record as “(*)”. The “Decrease rate (%) in LVEDP” value in experiment [2] is “.dwnarw..dwnarw. (a decrease of 20 to 40%)”. Besides, the “Increase rate (%) in flow” value in experiment [5] was “.uparw..uparw. (an increase of more than 30%)”. Also, the inhibition in vivo at 0.02 mg/kg in experiment [3] is over 50%.
As for `COc1ccc(OCC(O)CNC(C)C)cc1OCCO[N+](=O)[O-]` (stereo not shown) [Compound 3, 1-iso-Propylamino-3-[[4-methoxy-3-(2-nitratoethoxy)]phenoxy]-2-propanol], in experiment [6], the “antagonistic action against isoproterenol, compared with propranolol hydrochloride” value is reported as “same degree of action as the control drug”.
Still for that read-out and setting: the result for `CC(C)NCC(O)COc1cccc(OCCO[N+](=O)[O-])n1` (stereo not shown) [Compound 15, 1-iso-Propylamino-3-[6-(2-nitratoethoxy)-2-pyridyloxy]-2-propanol] reads “same degree of action as the control drug”.
On to `CC(C)NCC(O)COc1c(OCCO[N+](=O)[O-])cccc1OCCO[N+](=O)[O-]` (stereo not shown) [Compound 63, 1-iso-Propylamino-3-[2,6-di(2-nitratoethoxy)phenoxy]-2-propanol], for which the inhibition in vivo at 0.02 mg/kg in experiment [1] and in experiment [3] was over 50% each time.
With `CC(CCc1ccccc1)NCC(O)c1ccccc1OCCO[N+](=O)[O-]` (stereo not shown) [Compound 14, 1-[2-(2-Nitratoethoxy)phenyl]-2-(1-methyl-3-phenylpropyl)aminoethanol], in experiment [6], the “antagonistic action against isoproterenol, compared with propranolol hydrochloride” value is given as “same degree of action as the control drug”.
As to `CCC(CC)NCC(O)COc1cccc(OCCCO[N+](=O)[O-])c1` (stereo not shown) [Compound 26, 1-(1-Ethylpropyl)amino-3-[3-(3-nitratopropoxy)phenoxy]-2-propanol], the “Increase rate (%) in coronary flow” value in experiment [4] was “.uparw. (an increase of 30% or less)”. The “Increase rate (%) in flow” value in experiment [5] was “.uparw. (an increase of 30% or less)”.
`CC(C)NCC(O)COc1ccccc1OCCCCCCO[N+](=O)[O-]` (stereo not shown) [Compound 32, 1-iso-Propylamino-3-[2-(6-nitratohexyloxy)phenoxy]-2-propanol]: the “Increase rate (%) in coronary flow” value in experiment [4] was “.uparw. (an increase of 30% or less)”.
